Measurements taken from ChEMBL document CHEMBL1132537, “A series of 6- and 7-piperazinyl- and -piperidinylmethylbenzoxazinones with dopamine D4 antagonist activity: discovery of a potential atypical antipsychotic agent” (J Med Chem, 1999).

Assays:
[1] = tested on: Rattus norvegicus; test: Effect on Dopamine synthesis in rat Hippocampus(HI), measured as accumulation of DOPA(L-3,4-dihydroxyphenylalanine) at a peroral dose of 30 mg/kg; format: functional; settings: route oral
[2] = tested on: Rattus norvegicus; test: Effect on Dopamine synthesis in rat Striatum(ST), measured as accumulation of DOPA(L-3,4-dihydroxyphenylalanine) at a peroral dose of 30 mg/kg; format: functional; settings: route oral
[3] = target: D(3) dopamine receptor (Homo sapiens, UniProt P35462); test: biochemical
Description: Binding affinity at Dopamine receptor D3 in CHO cells by radioligand displacement.

[4] = target: T1, D(4) dopamine receptor (Homo sapiens, UniProt P21917); test: biochemical
T1 sequence (P21917 whole entry): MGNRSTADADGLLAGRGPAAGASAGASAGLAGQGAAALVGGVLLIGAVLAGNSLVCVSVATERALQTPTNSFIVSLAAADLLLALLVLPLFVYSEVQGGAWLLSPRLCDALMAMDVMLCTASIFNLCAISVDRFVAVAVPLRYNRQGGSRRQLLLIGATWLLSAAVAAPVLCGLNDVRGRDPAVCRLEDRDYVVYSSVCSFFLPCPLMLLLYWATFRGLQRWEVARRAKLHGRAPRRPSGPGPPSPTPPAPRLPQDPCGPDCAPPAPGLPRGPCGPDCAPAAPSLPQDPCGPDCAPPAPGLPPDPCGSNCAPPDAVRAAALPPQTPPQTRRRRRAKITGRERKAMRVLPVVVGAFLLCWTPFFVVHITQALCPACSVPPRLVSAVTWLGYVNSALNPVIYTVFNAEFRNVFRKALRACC
Description: Binding affinity at Dopamine receptor D4 in CHO cells by radioligand displacement.

[5] = tested on: Rattus norvegicus; test: Effect on Dopamine synthesis in rat Hippocampus(HI), measured as accumulation of DOPA(L-3,4-dihydroxyphenylalanine) at a peroral dose of 10 mg/kg; format: functional; settings: route oral
[6] = tested on: Rattus norvegicus; test: Effect on Dopamine synthesis in rat Striatum(ST), measured as accumulation of DOPA(L-3,4-dihydroxyphenylalanine) at a peroral dose of 10 mg/kg; format: functional; settings: route oral
[7] = tested on: Rattus norvegicus; test: Effect on Dopamine synthesis in rat Hippocampus(HI), measured as accumulation of DOPA(L-3,4-dihydroxyphenylalanine) at a peroral dose of 20 mg/kg; format: functional; settings: route oral
[8] = tested on: Rattus norvegicus; test: Effect on Dopamine synthesis in rat Striatum(ST), measured as accumulation of DOPA(L-3,4-dihydroxyphenylalanine) at a peroral dose of 20 mg/kg; format: functional; settings: route oral
[9] = target: D(2) dopamine receptor (Homo sapiens, UniProt P14416); test: Binding affinity at Dopamine receptor D2 in CHO cells by radioligand displacement.; format: cell-based
[10] = target: T2, 5-hydroxytryptamine receptor 1A (Homo sapiens, UniProt P08908); test: Inhibition of [3H]- […] binding against human recombinant 5-hydroxytryptamine 1A receptor
T2 sequence (P08908 whole entry): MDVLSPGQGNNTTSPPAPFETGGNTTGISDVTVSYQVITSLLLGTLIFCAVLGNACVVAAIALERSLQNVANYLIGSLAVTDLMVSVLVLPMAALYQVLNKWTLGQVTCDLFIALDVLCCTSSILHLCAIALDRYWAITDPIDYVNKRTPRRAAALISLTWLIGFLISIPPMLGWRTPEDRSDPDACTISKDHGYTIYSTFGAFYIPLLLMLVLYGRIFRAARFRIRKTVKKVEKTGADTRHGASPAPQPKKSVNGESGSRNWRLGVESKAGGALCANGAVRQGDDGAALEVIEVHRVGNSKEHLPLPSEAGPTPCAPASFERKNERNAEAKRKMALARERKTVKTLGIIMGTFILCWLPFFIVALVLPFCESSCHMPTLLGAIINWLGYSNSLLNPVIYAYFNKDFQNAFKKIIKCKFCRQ

[11] = target: Serotonin 2 (5-HT2) receptor (Rattus norvegicus, UniProt P30994+P08909+P14842); test: Inhibition of [3H]- Ketanserin binding against rat brain 5-hydroxytryptamine 2 receptor
[12] = target: T3, Alpha-1A adrenergic receptor (Rattus norvegicus, UniProt P43140); test: Inhibition of [3H]- prazosin binding against Alpha-1A adrenergic receptor from rat submaxillary gland
T3 sequence (P43140 whole entry): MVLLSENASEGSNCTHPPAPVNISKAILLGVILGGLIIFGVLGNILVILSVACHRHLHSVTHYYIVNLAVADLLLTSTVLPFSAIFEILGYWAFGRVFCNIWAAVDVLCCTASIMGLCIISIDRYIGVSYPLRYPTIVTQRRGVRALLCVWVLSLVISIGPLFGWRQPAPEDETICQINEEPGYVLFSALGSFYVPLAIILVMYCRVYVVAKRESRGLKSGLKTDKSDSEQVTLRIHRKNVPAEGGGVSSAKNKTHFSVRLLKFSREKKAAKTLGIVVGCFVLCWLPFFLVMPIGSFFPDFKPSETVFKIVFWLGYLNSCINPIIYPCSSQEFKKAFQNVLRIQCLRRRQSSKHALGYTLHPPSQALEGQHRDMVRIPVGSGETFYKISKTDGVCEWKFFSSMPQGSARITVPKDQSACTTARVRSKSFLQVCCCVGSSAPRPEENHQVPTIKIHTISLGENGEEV

[13] = target: T4, Alpha-1B adrenergic receptor (Rattus norvegicus, UniProt P15823); test: Inhibition of [3H]- prazosin binding against Alpha-1B adrenergic receptor from rat liver
T4 sequence (P15823 whole entry): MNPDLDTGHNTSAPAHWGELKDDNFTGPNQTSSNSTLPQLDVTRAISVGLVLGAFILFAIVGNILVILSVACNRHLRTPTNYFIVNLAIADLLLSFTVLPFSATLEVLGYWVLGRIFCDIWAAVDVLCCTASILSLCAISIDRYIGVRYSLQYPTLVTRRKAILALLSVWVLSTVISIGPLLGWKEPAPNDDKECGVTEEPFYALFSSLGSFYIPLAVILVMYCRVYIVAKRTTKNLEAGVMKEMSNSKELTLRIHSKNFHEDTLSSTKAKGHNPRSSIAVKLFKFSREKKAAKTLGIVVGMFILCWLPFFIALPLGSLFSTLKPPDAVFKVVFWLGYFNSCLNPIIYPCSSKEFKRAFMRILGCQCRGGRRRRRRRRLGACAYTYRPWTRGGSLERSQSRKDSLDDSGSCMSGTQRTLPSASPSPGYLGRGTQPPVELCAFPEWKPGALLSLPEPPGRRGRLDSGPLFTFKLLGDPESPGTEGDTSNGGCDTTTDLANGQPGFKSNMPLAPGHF

[14] = target: T5, Alpha-2A adrenergic receptor (Homo sapiens, UniProt P08913); test: Inhibition of [3H]- MK-912 binding against human recombinant Alpha-2A adrenergic receptor
T5 sequence (P08913 whole entry): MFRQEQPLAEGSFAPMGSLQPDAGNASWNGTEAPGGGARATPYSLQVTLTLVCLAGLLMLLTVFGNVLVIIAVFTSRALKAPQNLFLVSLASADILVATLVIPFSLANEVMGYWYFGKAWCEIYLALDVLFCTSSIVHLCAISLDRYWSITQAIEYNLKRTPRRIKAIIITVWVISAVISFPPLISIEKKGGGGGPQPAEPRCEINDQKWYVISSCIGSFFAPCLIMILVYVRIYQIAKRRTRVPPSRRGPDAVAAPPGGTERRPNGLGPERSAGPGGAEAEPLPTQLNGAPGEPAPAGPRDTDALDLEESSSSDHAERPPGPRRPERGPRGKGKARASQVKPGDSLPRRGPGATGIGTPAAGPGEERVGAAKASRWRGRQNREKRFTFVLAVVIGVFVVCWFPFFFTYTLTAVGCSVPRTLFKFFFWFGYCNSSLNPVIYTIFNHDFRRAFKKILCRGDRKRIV

[15] = target: T6, Muscarinic acetylcholine receptor M5 (Homo sapiens, UniProt P08912); test: Inhibition of [3H]- NMS binding against human recombinant Muscarinic acetylcholine receptor M5
T6 sequence (P08912 whole entry): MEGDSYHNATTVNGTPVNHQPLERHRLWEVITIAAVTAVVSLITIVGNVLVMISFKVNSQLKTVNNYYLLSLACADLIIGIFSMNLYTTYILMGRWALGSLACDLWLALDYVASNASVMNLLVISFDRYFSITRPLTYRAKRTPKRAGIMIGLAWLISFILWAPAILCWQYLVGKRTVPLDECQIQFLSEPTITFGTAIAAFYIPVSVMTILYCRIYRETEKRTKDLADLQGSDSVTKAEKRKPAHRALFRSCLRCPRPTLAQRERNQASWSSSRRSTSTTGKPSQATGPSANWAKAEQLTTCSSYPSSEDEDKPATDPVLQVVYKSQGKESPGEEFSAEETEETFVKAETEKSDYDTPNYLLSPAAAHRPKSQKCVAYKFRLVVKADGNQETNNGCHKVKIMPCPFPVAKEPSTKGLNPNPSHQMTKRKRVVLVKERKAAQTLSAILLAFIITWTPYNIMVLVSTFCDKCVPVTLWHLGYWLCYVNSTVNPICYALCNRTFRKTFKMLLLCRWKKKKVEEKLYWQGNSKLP

[16] = target: Sigma intracellular receptor 2 (Rattus norvegicus, UniProt Q5U3Y7); test: Inhibition of [3H]- Ifenprodil binding against rat brain Sigma opioid receptor type 2
[17] = target: T7, Alpha-2B adrenergic receptor (Rattus norvegicus, UniProt P19328); test: Inhibition of [3H]- Yohimbine binding against rat kidney cortex Alpha-2B adrenergic receptor
T7 sequence (P19328 whole entry): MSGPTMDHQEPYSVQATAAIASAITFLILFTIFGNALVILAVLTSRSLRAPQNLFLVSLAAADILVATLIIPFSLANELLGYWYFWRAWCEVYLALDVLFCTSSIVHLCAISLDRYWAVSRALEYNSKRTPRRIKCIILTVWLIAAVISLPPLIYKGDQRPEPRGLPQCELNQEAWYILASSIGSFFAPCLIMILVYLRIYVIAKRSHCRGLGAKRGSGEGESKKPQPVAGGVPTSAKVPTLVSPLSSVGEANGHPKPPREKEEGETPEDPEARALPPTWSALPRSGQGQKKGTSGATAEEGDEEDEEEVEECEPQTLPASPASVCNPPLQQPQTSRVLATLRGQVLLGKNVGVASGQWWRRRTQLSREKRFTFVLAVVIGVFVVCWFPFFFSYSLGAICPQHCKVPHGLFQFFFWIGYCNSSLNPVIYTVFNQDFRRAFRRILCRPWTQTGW

Sequence of D(3) dopamine receptor (P35462 whole entry): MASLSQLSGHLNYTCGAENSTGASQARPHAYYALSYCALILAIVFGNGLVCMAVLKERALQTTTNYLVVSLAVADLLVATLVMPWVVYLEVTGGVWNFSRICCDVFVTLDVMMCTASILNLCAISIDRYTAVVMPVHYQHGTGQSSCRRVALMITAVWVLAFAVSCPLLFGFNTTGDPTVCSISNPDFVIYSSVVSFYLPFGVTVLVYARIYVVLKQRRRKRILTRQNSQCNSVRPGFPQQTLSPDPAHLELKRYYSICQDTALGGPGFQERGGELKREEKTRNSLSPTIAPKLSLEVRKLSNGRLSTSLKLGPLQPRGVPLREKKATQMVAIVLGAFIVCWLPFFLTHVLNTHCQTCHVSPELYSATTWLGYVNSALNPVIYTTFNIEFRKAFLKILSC
Sequence of D(2) dopamine receptor (P14416 whole entry): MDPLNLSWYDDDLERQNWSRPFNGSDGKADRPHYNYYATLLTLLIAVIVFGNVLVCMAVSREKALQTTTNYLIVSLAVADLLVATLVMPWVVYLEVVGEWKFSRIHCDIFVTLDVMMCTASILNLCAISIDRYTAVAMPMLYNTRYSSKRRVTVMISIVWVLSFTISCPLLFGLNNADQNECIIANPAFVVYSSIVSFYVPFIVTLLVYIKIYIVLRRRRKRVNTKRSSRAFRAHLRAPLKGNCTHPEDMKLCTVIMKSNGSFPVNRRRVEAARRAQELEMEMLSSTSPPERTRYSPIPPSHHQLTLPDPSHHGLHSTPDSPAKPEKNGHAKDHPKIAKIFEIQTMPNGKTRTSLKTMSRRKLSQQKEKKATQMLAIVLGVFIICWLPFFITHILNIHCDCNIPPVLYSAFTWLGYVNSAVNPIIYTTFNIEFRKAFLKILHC
Sequence of Sigma intracellular receptor 2 (Q5U3Y7 whole entry, looked up): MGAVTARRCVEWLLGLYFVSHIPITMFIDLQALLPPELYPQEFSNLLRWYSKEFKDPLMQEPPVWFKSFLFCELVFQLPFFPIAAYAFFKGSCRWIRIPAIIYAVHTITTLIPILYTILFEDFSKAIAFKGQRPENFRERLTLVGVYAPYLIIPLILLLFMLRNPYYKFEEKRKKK

| Ki [3] [nM] | Ki [4] [nM] | SMILES | Change [5] [%] | Change [6] [%] | other results |
| --- | --- | --- | --- | --- | --- |
| > 3030 | – | COc1ccc(C2CCN(Cc3ccc4c(c3)NC(=O)CO4)CC2)cc1 | – | – | Change [1]: 93%; Change [2]: 96% |
| > 3030 | 62.4 | O=C1COc2ccc(CN3CCN(c4ccc(Cl)cc4)CC3)cc2N1 | – | – | – |
| 859 | 2.6 | Cc1ccc(C2CCN(Cc3ccc4c(c3)OCC(=O)N4)CC2)cc1C | 103 | 99 | – |
| 839 | 18.3 | O=C1COc2ccc(CN3CCN(c4ccccc4)CC3)cc2N1 | – | – | – |
| 428 | 6.7 | COc1ccc(C2CCN(Cc3ccc4c(c3)OCC(=O)N4)CC2)cc1 | – | – | Change [7]: 132%; Change [8]: 126% |
| > 3030 | 1.8 | Cc1ccc(C2CCN(Cc3ccc4c(c3)NC(=O)CO4)CC2)cc1C | – | – | Change in DA synthesis [5]: 128%; Change in DA synthesis [6]: 104% |
| 1790 | 5 | COc1ccc(N2CCN(Cc3ccc4c(c3)OCC(=O)N4)CC2)cc1 | 122 | 104 | Ki [9]: > 5880 nM |
| 208 | – | Cc1ccc(N2CCN(Cc3ccc4c(c3)OCC(=O)N4)CC2)cc1 | 133 | 140 | – |
| 864 | – | Cc1ccc(N2CCN(Cc3ccc4c(c3)NC(=O)CO4)CC2)cc1C | 122 | 126 | – |
| 232 | 2.6 | Cc1ccc(C2CCN(Cc3ccc4c(c3)OCC(=O)N4)CC2)cc1 | – | – | – |
| 78.5 | – | Cc1ccc(N2CCN(Cc3ccc4c(c3)OCC(=O)N4)CC2)cc1C | – | – | – |
| > 3030 | 2.8 | Cc1ccc(C2CCN(Cc3ccc4c(c3)NC(=O)CO4)CC2)cc1 | – | – | – |
| > 3030 | – | COc1ccc(N2CCN(Cc3ccc4c(c3)NC(=O)CO4)CC2)cc1 | – | – | Change [1]: 91%; Change [2]: 110% |

| SMILES | Ki [3] [nM] | Ki [4] [nM] | Change [5] [%] | Change [6] [%] | other results |
| --- | --- | --- | --- | --- | --- |
| O=C1COc2cc(CN3CCN(c4ccccc4)CC3)ccc2N1 | 10.4 | 6.1 | – | – | – |
| Cc1ccc(N2CCN(Cc3ccc4c(c3)NC(=O)CO4)CC2)cc1 | 2490 | 4.3 | – | – | Change [7]: 89%; Change [8]: 111% |
| O=C1COc2cc(CN3CCN(c4ccc(Cl)cc4)CC3)ccc2N1 | 679 | 4.3 | 146 | 110 | IC50 [10]: 1400 nM; Ki [10]: 792 nM; IC50 [11]: 2700 nM; Ki [11]: 1678 nM; IC50 [12]: 500 nM; Ki [12]: 203 nM; IC50 [13]: 1420 nM; Ki [13]: 787 nM; IC50 [14]: 1100 nM; Ki [14]: 411 nM; Ki [9]: 413 nM; IC50 [15]: 1340 nM; Ki [15]: 964 nM; IC50 [16]: 375 nM; Ki [16]: 231 nM; IC50 [17]: 630 nM; Ki [17]: 368 nM |
